Results reported in publication PMC4154125, “Crystal structures of highly specific phosphinic tripeptide enantiomers in complex with the angiotensin‐I converting enzyme” (The Febs Journal, 2013).

Experiments:
AnCE [1] = molecular target: T1, AnCE (Drosophila melanogaster, UniProt Q10714); experiment: inhibition of hippuryl-histidyl-leucine hydrolysis; format: biochemical
T1 construct: recombinant single-domain enzyme, secreted from Pichia pastoris, purified
T1 sequence (Q10714 18-615): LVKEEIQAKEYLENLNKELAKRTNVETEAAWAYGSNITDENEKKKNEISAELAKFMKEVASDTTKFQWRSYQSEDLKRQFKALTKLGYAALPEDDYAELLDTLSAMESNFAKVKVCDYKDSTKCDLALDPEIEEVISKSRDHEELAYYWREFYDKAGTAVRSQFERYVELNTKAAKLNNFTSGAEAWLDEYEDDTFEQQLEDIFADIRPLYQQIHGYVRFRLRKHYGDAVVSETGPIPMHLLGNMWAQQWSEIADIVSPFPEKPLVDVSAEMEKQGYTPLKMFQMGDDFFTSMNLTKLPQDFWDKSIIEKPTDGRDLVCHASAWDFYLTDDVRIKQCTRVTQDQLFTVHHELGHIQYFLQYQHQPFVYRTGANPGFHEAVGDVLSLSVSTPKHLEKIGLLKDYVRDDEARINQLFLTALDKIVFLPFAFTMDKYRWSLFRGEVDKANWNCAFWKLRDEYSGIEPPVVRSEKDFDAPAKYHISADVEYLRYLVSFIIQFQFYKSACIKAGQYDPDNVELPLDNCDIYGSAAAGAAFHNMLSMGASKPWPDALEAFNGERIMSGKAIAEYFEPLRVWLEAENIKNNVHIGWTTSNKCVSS

AnCE [2] = molecular target: T1, AnCE; experiment: inhibition of hippuryl-histidyl-leucine hydrolysis, Ki from IC50 (Cheng-Prusoff); format: biochemical; details: read-out: apparent Ki
C-ACE = molecular target: T2, C-ACE (Homo sapiens, UniProt P12821); experiment: X-ray crystal structure, […] Å; format: binding; details: co-crystal, pH 4.0 reservoir; active site, zinc coordination
T2 construct: tACEΔ36-g13, truncated underglycosylated variant of testis ACE (C-domain), CHO cells, purified
T2 sequence (P12821 642-1230): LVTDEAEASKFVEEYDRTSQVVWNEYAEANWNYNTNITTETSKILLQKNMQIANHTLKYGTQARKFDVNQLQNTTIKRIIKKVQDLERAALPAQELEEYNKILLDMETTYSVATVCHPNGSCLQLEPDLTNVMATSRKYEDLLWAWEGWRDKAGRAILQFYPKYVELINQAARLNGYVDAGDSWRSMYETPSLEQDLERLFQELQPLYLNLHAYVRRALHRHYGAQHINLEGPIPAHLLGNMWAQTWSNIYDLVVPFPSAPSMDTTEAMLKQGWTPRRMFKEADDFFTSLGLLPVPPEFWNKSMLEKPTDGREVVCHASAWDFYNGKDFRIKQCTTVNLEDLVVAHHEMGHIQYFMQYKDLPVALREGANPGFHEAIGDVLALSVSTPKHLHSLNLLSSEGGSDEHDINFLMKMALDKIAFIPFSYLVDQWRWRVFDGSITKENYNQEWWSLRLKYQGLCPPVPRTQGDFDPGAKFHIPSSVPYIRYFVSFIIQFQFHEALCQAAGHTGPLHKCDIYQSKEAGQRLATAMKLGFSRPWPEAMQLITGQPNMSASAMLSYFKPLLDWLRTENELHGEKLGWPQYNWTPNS

Structure (SMILES) | IC50 (AnCE [1]) | Ki (AnCE [2]) | X-ray crystal structure, 1.85 Å (C-ACE)
O=C(N[C@@H](Cc1ccccc1)P(=O)(O)C[C@@H](Cc1cc(-c2ccccc2)no1)C(=O)N[C@@H](Cc1ccc(O)cc1)C(=O)O)OCc1ccccc1 [FI, (2S)‐2‐({3‐[hydroxyl (2‐phenyl‐(1R)‐1‐{[(benzyloxy)carbonyl]‐amino}ethyl)phosphinyl]‐2‐[(3‐phenylisoxazol‐5‐yl)methyl]‐1‐oxo‐propyl}amino)‐3‐(4‐hydroxy‐phenyl) propanoic acid] | 44 nM | 24 nM | One bound inhibitor molecule was modelled in the catalytic site of C‐ACE
O=C(N[C@@H](Cc1ccccc1)P(=O)(O)C[C@H](Cc1cc(-c2ccccc2)no1)C(=O)N[C@@H](Cc1ccc(O)cc1)C(=O)O)OCc1ccccc1 [FII, (2S)‐2‐({3‐[hydroxyl (2‐phenyl‐(1R)‐1‐{[(benzyloxy)carbonyl]‐amino}ethyl)phosphinyl]‐2‐[(3‐phenylisoxazol‐5‐yl)methyl]‐1‐oxo‐propyl}amino)‐3‐(4‐hydroxy‐phenyl) propanoic acid] | 210 nM | 120 nM | 
